# Measurements reported in patent US8710043B2, “TRPM8 antagonists and their use in treatments” (Amgen Inc., priority 2011, dated 2014).
# Target: T1, human TRPM8 (Homo sapiens, UniProt Q7Z2W7)
# T1 construct: expressed in transfected cells; host or cells: Chinese hamster ovary (CHO) cells, T-REx tetracycline-inducible system, co-transfected with aequorin
# Assay: Luminescence readout assay for measuring intracellular calcium, icilin activation
# Assay type: cell-based
# Settings: CHO cells expressing human TRPM8, aequorin luminescence, 1 μM icilin activation; read-out: hTRPM8 IC50
# How it was run: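 The read-out was luminescence reporting intracellular calcium, recorded by a CCD-based luminometer. Compounds were preincubated for 2.5 min before agonist challenge with 1 μM icilin. Human TRPM8 was expressed in a stable T-REx CHO line, induced with 0.5 μg/mL tetracycline the day before.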
# T1 sequence (Q7Z2W7 whole entry): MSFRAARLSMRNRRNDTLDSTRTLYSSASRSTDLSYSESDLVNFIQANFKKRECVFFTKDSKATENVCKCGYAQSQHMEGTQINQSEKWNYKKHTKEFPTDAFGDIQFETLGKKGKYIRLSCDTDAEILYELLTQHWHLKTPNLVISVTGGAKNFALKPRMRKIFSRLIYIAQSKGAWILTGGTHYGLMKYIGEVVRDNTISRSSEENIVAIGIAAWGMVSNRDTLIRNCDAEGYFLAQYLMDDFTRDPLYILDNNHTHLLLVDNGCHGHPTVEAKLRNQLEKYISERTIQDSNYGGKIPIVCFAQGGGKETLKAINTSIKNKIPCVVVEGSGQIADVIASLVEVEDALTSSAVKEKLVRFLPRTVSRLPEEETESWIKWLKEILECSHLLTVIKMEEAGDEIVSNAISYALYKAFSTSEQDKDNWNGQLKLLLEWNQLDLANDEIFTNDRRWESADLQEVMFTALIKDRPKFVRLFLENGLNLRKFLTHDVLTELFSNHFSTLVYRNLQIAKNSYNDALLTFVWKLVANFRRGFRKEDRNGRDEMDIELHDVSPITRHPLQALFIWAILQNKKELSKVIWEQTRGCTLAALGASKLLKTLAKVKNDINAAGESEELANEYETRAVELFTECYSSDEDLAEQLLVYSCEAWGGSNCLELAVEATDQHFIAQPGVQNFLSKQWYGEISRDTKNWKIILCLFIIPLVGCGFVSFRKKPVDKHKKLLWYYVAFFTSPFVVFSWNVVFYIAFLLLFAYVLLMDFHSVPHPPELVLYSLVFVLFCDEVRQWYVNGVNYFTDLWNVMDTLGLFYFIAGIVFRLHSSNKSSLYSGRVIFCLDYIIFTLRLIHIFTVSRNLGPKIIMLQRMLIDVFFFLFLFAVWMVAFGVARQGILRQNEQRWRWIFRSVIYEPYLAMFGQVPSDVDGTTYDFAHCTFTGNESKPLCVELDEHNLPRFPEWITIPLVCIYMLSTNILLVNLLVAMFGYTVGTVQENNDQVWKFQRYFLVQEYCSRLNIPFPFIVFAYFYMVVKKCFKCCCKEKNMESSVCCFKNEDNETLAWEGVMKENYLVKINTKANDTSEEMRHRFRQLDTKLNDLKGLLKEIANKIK
row,IC50 [nM],Compound
1,75.6,"O=C(N[C@@H](c1ccc(C(F)(F)F)cc1)c1ncccc1F)c1ccccn1 [Example 194, (S)-N-((3-fluoropyridin-2-yl)(4-(trifluoromethyl)phenyl)methyl)picolinamide]"
2,37.6,"CC#Cc1cccnc1[C@@H](NC(=O)c1ccc(OC)nc1)c1ccc(C(F)(F)F)cc1 [Example 96, (S)-6-methoxy-N-((3-(prop-1-yn-1-yl)pyridin-2-yl)(4-(trifluoromethyl)phenyl)methyl)nicotinamide]"
3,225,"O=C(N[C@@H](c1ccc(OC(F)(F)F)c(F)c1)c1ncccc1F)c1cc2[nH]c(=O)oc2cn1 [Example 437, (S)—N-((3-Fluoro-4-(trifluoromethoxy)phenyl)(3-fluoropyridin-2-yl)methyl)-2-oxo-1,2-dihydrooxazolo[5,4-c]pyridine-6-carboxamide]"
4,54.3,"COc1ccc2cc([C@H](NC(=O)c3ccc4cccnc4c3)c3ncccc3C(F)(F)F)cnc2c1 [Example 8, (S)-N-((7-methoxyquinolin-3-yl)(3-(trifluoromethyl)pyridin-2-yl)methyl)quinoline-7-carboxamide]"
5,62.2,"O=C(N[C@@H](c1ccc(C(F)(F)F)cc1)c1ncccc1C(F)(F)F)c1ccc2c(c1)C(=O)NC2 [Example 265, (S)-3-oxo-N-((4-(trifluoromethyl)phenyl)(3-(trifluoromethyl)-pyridin-2-yl)methyl)isoindoline-5-carboxamide]"
6,5.3,"Cc1cccnc1[C@@H](NC(=O)c1ccc2oc(=O)[nH]c2c1)c1ccc(C(F)(F)F)cc1 [Example 84, (S)-N-((3-methylpyridin-2-methyl)phenyl)yl)(4-(trifluoromethyl)-2-oxo-2,3-dihydrobenzo[d]oxazole-5-carboxamide]"
7,20,"Cc1cccnc1[C@@H](NC(=O)c1ccc(=O)n(C)c1)c1ccc(OC(F)(F)F)cc1 [Example 360, (S)-1-methyl-N-((3-methylpyridin-2-yl)(4-(trifluoromethoxy)phenyl)methyl)-6-oxo-1,6-dihydropyridine-3-carboxamide]"
8,29.6,"O=C(N[C@@H](c1ccc(C(F)(F)F)cc1)c1ncccc1F)c1ccc(=O)n(C2COC2)c1 [Example 305, (S)-N-((3-fluoropyridin-2-yl)(4-(trifluoromethyl)phenyl)methyl)-1-(oxetan-3-yl)-6-oxo-1,6-dihydropyridine-3-carboxamide]"
9,11.7,"O=C(N[C@@H](c1ccc(OC(F)(F)F)c(F)c1)c1ccccn1)c1ccc2[nH]c(=O)oc2c1 [Example 391, (S)-N-((3-fluoro-4-(trifluoromethoxy)phenyl)(pyridin-2-yl)methyl)-2-oxo-2,3-dihydrobenzo[d]oxazole-6-carboxamide]"
10,148,"O=C(N[C@@H](c1ccc(C(F)(F)F)cc1)c1ncccc1C(F)(F)F)c1cncnc1 [Example 147, (S)-N-((4-(trifluoromethyl)phenyl)(3-(trifluoromethyl)pyridin-2-yl)methyl)pyrimidine-5-carboxamide]"
11,143,"COc1ccnc(C(=O)N[C@@H](c2ccc(C(F)(F)F)cc2)c2ncccc2C(F)(F)F)c1 [Example 32, (S)-4-methoxy-N-((4-(trifluoromethyl)phenyl)(3-(trifluoromethyl)pyridin-2-yl)methyl)picolinamide]"
12,23.5,"O=C(N[C@@H](c1ccc(C(F)(F)F)cc1)c1ncccc1F)c1ccc2nccnc2c1 [Example 170, (S)-N-((3-fluoropyridin-2-yl)(4-(trifluoromethyl)phenyl)methyl)quinoxaline-6-carboxamide]"
13,2310,"O=C(O)c1cncc(C(=O)N[C@@H](c2ccc(C(F)(F)F)cc2)c2ncccc2C(F)(F)F)c1 [Example 226, (S)-5-(((4-(trifluoromethyl)phenyl)(3-(trifluoromethyl)pyridin-2-yl)methyl)carbamoyl)nicotinic acid]"
14,10.5,"O=C(N[C@@H](c1ccc(OC(F)(F)F)c(F)c1)c1ncccc1F)c1ccc2oc(=O)[nH]c2n1 [Example 425, (S)—N-((3-Fluoro-4-(trifluoromethoxy)phenyl)(3-fluoropyridin-2-yl)methyl)-2-oxo-2,3-dihydrooxazolo[4,5-b]pyridine-5-carboxamide]"
15,169,"O=C(N[C@@H](c1ccc(C(F)(F)F)cc1)c1ncccc1C(F)(F)F)[C@@H]1CCCO1 [Example 234, (S)-N-((S)-(4-(trifluoromethyl)phenyl)(3-(trifluoromethyl)pyridin-2-yl)methyl)THF-2-carboxamide]"
16,167,"O=C(N[C@@H](c1ccc(C(F)(F)F)cc1)c1ncccc1F)c1ccc[nH]c1=O [Example 72, (S)-N-((3-fluoropyridin-2-yl)(4-(trifluoromethyl)phenyl)methyl)-2-oxo-1,2-dihydropyridine-3-carboxamide]"
17,56.4,"CC(=O)Oc1ccc(C(=O)N[C@@H](c2ccc(C(F)(F)F)cc2)c2ncccc2F)cc1N [Example 431, (S)-2-Amino-4-(((3-fluoropyridin-2-yl)(4-(trifluoromethyl)phenyl)methyl)carbamoyl)phenyl Acetate]"
18,118,"COc1cccc(C(NC(=O)c2ccc(=O)[nH]c2)c2ccc(OC(F)(F)F)c(F)c2)n1 (stereo not shown) [Example 420, N-((3-fluoro-4-(trifluoromethoxy)phenyl)(6-methoxypyridin-2-yl)methyl)-6-oxo-1,6-dihydropyridine-3-carboxamide]"
19,10.4,"Cc1cc([C@H](NC(=O)c2ccc(=O)[nH]c2)c2ncccc2F)ccc1OC(F)(F)F [Example 381, (S)-N-((3-fluoropyridin-2-yl)(3-methyl-4-(trifluoromethoxy)phenyl)methyl)-6-oxo-1,6-dihydropyridine-3-carboxamide]"
20,105,Cc1ncoc1C(=O)NC(c1ccc(C(F)(F)F)cc1)c1ncccc1F (stereo not shown) [Example 221]
21,1290,"O=C(O)Cn1cc(C(=O)N[C@@H](c2ccc(OC(F)(F)F)c(F)c2)c2ncccc2F)ccc1=O [Example 428, (S)-2-(5-(((3-Fluoro-4-(trifluoromethoxy)phenyl)(3-fluoropyridin-2-yl)methyl)carbamoyl)-2-oxopyridin-1(2H)-yl)acetic Acid]"
22,46.6,"Cc1cccnc1[C@@H](NC(=O)c1ccc2c(c1)OCC(=O)N2)c1ccc(OC(F)(F)F)c(F)c1 [Example 357, (S)-N-((3-fluoro-4-(trifluoromethoxy)phenyl)(3-methylpyridin-2-yl)methyl)-3-oxo-3,4-dihydro-2H-benzo[b][1,4]oxazine-7-carboxamide]"
23,120,"O=C(N[C@@H](c1ccc(OC(F)(F)F)c(F)c1)c1ncccc1F)c1c[nH]c(=O)c(C(F)(F)F)c1 [Example 402, (S)-N-((3-fluoro-4-(trifluoromethoxy)phenyl)(3-fluoropyridin-2-yl)methyl)-6-oxo-5-(trifluoromethyl)-1,6-dihydropyridine-3-carboxamide]"
24,245,"Cc1ccc([C@H](NC(=O)c2ccc(=O)[nH]c2)c2ncccc2F)cc1C [Example 380, (S)-N-((3,4-dimethylphenyl)(3-fluoropyridin-2-yl)methyl)-6-oxo-1,6-dihydropyridine-3-carboxamide]"
25,10.5,"Cn1cc(C(=O)N[C@@H](c2ccc(C(F)(F)F)cc2)c2ncccc2C(F)(F)F)ccc1=O [Example 50, (S)-1-methyl-6-oxo-N-((4-(trifluoromethyl)phenyl)(3-(trifluoromethyl)pyridin-2-yl)methyl)-1,6-dihydropyridine-3-carboxamide]"
